The values below are quoted from earlier work in US6303141A, “Transdermally administrable medicament with ACE inhibitors” (Hexal AG, priority 1995, dated 2001).

The conditions of the data set: in vivo.

As to `CCOC(=O)[C@H](CCc1ccccc1)N[C@H]1CCc2ccccc2N(CC(=O)O)C1=O` [benazepril], the oral bioavailability is reported as 28%.
For `C[C@H](CS)C(=O)N1CCC[C@H]1C(=O)O` [captopril], the oral bioavailability entry is listed as “approximately 70%”.
